The values that follow come from US11208386B2, “Inhibitors of protein arginine deiminases (PADs) and methods of preparation and use thereof” (University of Massachusetts, priority 2016, dated 2021).

For orientation: kinact/KI means the second-order rate constant of inactivation. In general, kinact refers to the maximal first-order rate at which the target is inactivated.

SMILES strings stand for the structures.

Format in all cases: biochemical
The target of one assay is T1, PAD1 (Homo sapiens, UniProt Q9ULC6).
T1 construct: made in house
T1 sequence (Q9ULC6 1-663): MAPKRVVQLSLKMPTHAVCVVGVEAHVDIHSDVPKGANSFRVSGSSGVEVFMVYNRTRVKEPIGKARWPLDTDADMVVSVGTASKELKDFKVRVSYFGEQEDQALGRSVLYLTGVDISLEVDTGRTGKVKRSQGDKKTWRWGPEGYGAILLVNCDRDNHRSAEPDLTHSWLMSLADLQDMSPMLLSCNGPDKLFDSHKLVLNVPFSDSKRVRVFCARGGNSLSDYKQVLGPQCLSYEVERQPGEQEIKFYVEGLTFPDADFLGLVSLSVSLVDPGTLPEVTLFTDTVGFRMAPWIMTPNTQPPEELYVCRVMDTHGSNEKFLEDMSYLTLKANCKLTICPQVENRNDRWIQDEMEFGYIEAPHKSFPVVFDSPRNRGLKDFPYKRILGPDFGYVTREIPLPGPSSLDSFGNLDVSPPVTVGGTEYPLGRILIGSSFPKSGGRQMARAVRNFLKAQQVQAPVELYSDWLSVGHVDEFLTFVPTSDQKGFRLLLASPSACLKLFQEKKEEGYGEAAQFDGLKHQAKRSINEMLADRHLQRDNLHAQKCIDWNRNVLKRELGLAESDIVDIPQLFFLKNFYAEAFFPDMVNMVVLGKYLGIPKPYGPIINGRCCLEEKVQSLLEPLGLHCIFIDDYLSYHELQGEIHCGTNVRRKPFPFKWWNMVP
Kind of assay: Inactivation kinetics, PAD1. Particulars: for kinact/KI: a: single kobs determined, b: from a linear fit; for Fold PAD1 Selectivity: kinact/KI relative to least inhibited isozyme (1.0). Summed up:
(§1)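 PAD1, 2 or 4 (2.0 μM) or PAD3 (5.0 μM) preincubated at 37 °C with varying inhibitor in 50 mM HEPES, 10 mM CaCl2, 2 mM DTT, pH 7.6. Timed aliquots assayed 15 min with 10 mM BAEE (BAA for PAD3); citrulline quantified by COLDER.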

The target in the next assay is T2, PAD2 (Homo sapiens, UniProt Q9Y2J8).
T2 construct: made in house
T2 sequence (Q9Y2J8 whole entry): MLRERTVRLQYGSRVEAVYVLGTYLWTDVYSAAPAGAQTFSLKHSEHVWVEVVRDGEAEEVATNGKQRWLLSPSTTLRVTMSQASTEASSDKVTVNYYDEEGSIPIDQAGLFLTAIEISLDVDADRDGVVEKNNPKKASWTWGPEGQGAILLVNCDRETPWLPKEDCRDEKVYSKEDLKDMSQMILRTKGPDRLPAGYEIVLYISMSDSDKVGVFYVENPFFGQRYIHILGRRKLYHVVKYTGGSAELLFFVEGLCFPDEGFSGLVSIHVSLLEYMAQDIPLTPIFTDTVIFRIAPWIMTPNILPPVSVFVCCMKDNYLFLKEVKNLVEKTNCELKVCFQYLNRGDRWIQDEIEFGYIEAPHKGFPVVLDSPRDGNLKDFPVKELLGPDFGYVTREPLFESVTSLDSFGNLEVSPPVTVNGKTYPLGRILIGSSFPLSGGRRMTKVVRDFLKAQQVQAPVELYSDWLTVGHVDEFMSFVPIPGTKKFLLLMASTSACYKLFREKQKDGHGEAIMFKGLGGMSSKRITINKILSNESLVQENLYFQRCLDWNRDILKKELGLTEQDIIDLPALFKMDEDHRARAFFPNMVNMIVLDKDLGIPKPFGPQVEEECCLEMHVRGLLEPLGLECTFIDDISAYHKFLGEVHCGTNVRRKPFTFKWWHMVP
Kind of assay: Inactivation kinetics, PAD2. The settings on record: for kinact/KI: a: single kobs determined, b: from a linear fit, other footnotes: from kinact and KI; for Fold PAD2 Selectivity: kinact/KI relative to least inhibited isozyme (1.0); for Ki / kinact: PAD2, table footnote. Summed up:
as §1

Another assay deals with T3, PAD3 (Homo sapiens, UniProt Q9ULW8).
T3 construct: made in house
T3 sequence (Q9ULW8 1-664): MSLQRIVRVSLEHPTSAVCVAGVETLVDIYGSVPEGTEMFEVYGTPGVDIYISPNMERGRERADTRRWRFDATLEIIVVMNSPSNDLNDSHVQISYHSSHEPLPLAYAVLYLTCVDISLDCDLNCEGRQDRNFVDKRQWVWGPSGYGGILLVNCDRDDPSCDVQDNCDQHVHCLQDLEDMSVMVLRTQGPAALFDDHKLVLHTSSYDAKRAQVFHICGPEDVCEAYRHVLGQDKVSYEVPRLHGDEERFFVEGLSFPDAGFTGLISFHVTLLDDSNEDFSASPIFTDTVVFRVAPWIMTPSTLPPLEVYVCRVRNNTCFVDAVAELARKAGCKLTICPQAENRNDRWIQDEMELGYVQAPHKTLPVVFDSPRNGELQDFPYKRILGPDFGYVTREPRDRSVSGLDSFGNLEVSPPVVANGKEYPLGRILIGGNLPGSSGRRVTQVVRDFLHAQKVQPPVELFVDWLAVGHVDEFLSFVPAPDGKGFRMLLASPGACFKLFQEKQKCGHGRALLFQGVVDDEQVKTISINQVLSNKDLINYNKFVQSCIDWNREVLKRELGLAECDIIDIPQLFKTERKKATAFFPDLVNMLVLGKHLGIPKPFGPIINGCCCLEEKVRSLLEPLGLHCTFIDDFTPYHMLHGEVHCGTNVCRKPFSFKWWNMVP
Kind of assay: Inactivation kinetics, PAD3. Particulars: for kinact/KI: a: single kobs determined; for Fold PAD3 Selectivity: kinact/KI relative to least inhibited isozyme (1.0). The method in brief: as §1

A further assay deals with T4, PAD4 (Homo sapiens, UniProt Q9UM07).
T4 construct: made in house
T4 sequence (Q9UM07 whole entry): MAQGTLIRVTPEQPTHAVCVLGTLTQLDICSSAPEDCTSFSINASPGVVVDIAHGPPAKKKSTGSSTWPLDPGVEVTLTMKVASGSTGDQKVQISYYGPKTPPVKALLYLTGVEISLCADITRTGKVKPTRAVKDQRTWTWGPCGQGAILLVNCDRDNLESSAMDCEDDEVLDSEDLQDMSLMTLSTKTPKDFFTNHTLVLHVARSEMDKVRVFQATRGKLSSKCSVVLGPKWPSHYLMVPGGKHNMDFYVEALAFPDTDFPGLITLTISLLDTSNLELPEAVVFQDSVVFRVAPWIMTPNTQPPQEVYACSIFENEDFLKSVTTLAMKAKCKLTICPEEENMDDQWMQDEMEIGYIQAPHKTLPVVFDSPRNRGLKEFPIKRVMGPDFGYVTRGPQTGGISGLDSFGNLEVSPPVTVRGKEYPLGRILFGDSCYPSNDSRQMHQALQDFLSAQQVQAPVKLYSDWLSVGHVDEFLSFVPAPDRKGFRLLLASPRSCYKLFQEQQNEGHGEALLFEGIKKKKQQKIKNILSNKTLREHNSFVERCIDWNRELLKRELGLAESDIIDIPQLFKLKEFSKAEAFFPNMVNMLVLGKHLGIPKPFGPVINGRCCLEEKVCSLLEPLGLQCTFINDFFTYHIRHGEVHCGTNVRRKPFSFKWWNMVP
The experiment in a line: Inactivation kinetics, PAD4. Particulars: for kinact/KI: a: single kobs determined, b: from a linear fit; for Fold PAD4 Selectivity: kinact/KI relative to least inhibited isozyme (1.0). The method in brief: as §1

Turning to `CCN1Cc2cccc(C(=O)N[C@@H](CCCNC(=N)CF)c3nc4ccccc4n3CC)c2C1=O` [Compound 8e, N1-(2-ethyl-3-oxoisoindoline)benzoyl-N5-(2-fluoro-1-iminoethyl)-1-(1-ethyl-benzo[d]imidazol-2-yl)-L-ornithine], on PAD1, the inactivation efficiency (kinact/KI) was 402 M⁻¹ s⁻¹ and the “Fold PAD1 Selectivity” value is recorded as 19 fold. On PAD2, the kinact/KI is 677 M⁻¹ s⁻¹ and the “Fold PAD2 Selectivity” value is 33 fold. For the same molecule, on PAD3, the kinact/KI is 20.8 M⁻¹ s⁻¹ and the “Fold PAD3 Selectivity” value came to 1.0 fold. At PAD4, the kinact/KI is 20.7 M⁻¹ s⁻¹ and the “Fold PAD4 Selectivity” value came out at 1.0 fold.

For `CCN1Cc2cccc(C(=O)N[C@@H](CCCNC(=N)CCl)c3nc4ccccc4n3CC)c2C1=O` [Compound 8f, N1-(2-ethyl-3-oxoisoindoline)benzoyl-N5-(2-chloro-1-iminoethyl)-1-(1-ethyl-benzo[d]imidazol-2-yl)-L-ornithine], at PAD1, the kinact/KI is 952 M⁻¹ s⁻¹ and the “Fold PAD1 Selectivity” value was found to be 18 fold. On PAD2, the kinact/KI is 752 M⁻¹ s⁻¹ and the “Fold PAD2 Selectivity” value was determined as 14 fold. Further, at PAD3, the kinact/KI is 114 M⁻¹ s⁻¹ and the “Fold PAD3 Selectivity” value turned out to be 2.1 fold. Further, at PAD4, the kinact/KI is 54.2 M⁻¹ s⁻¹ and the “Fold PAD4 Selectivity” value was determined as 1.0 fold.

With `CCN1Cc2cccc(C(=O)N[C@@H](CCCNC(=N)CF)c3nc4ccccc4n3C(C)C)c2C1=O` [Compound 8g, N1-(2-ethyl-3-oxoisoindoline)benzol-N5-(2-fluoro-1-iminoethyl)-1-(1-isopropyl-benzo[d]imidazol-2-yl)-L-ornithine], at PAD1, the kinact/KI was 78.3 M⁻¹ s⁻¹ and the “Fold PAD1 Selectivity” value is reported as 10 fold. Besides, on PAD2, the kinact/KI was 173 M⁻¹ s⁻¹ and the “Fold PAD2 Selectivity” value stood at 22 fold. Further, at PAD3, the second-order inactivation constant (kinact/KI) is 26.7 M⁻¹ s⁻¹ and the “Fold PAD3 Selectivity” value stood at 3.4 fold. In addition, on PAD4, the kinact/KI was 7.83 M⁻¹ s⁻¹ and the “Fold PAD4 Selectivity” value is on record as 1.0 fold.

Take `CCN1Cc2cccc(C(=O)N[C@@H](CCCNC(=N)CCl)c3nc4ccccc4n3C(C)C)c2C1=O` [Compound 8h, N1-(2-ethyl-3-oxoisoindoline)benzoyl-N5-(2-chloro-1-iminoethyl)-1-(1-isopropyl-benzo[d]imidazol-2-yl)-L-ornithine]: on PAD1, the second-order inactivation constant (kinact/KI) is 448 M⁻¹ s⁻¹ and the “Fold PAD1 Selectivity” value came to 11 fold. Moreover, on PAD2, the kinact/KI was 277 M⁻¹ s⁻¹ and the “Fold PAD2 Selectivity” value was determined as 6.8 fold. Moreover, at PAD3, the kinact/KI is 80 M⁻¹ s⁻¹ and the “Fold PAD3 Selectivity” value is given as 2.0 fold. Moreover, on PAD4, the second-order inactivation constant (kinact/KI) was 40.5 M⁻¹ s⁻¹ and the “Fold PAD4 Selectivity” value worked out at 1.0 fold.

Consider `CCN1Cc2cccc(C(=O)N[C@@H](CCCNC(=N)CF)c3nc4c(OC)cccc4[nH]3)c2C1=O` [Compound 8i, N1-(2-ethyl-3-oxoisoindoline)benzoyl-N5-(2-fluoro-1-iminoethyl)-1-(4-methoxy-1H-benzo[d]imidazol-2-yl)-L-ornithine], for which, on PAD1, the kinact/KI was 1340 M⁻¹ s⁻¹ and the “Fold PAD1 Selectivity” value is given as 107 fold. In addition, on PAD2, the kinact/KI is 396 M⁻¹ s⁻¹ and the “Fold PAD2 Selectivity” value was determined as 32 fold. In addition, at PAD3, the inactivation efficiency (kinact/KI) is 153 M⁻¹ s⁻¹ and the “Fold PAD3 Selectivity” value worked out at 12 fold. Further, on PAD4, the kinact/KI was 12.5 M⁻¹ s⁻¹ and the “Fold PAD4 Selectivity” value was 1.0 fold.

On to `CCN1Cc2cccc(C(=O)N[C@@H](CCCNC(=N)CCl)c3nc4c(OC)cccc4[nH]3)c2C1=O` [Compound 8j, N1-(2-ethyl-3-oxoisoindoline)benzoyl-N5-(2-chloro-1-iminoethyl)-1-(4-methoxy-1H-benzo[d]imidazol-2-yl)-L-ornithine], for which, on PAD1, the second-order inactivation constant (kinact/KI) was 1530 M⁻¹ s⁻¹ and the “Fold PAD1 Selectivity” value was 5.0 fold. Also, on PAD2, the kinact/KI was 720 M⁻¹ s⁻¹ and the “Fold PAD2 Selectivity” value was found to be 2.3 fold. Further, at PAD3, the second-order inactivation constant (kinact/KI) was 313 M⁻¹ s⁻¹ and the “Fold PAD3 Selectivity” value came out at 1.0 fold. Also, on PAD4, the second-order inactivation constant (kinact/KI) is 308 M⁻¹ s⁻¹ and the “Fold PAD4 Selectivity” value amounted to 1.0 fold.

As for `CCN1Cc2cccc(C(=O)N[C@@H](CCCNC(=N)CF)c3nc4c(OC)cccc4n3C)c2C1=O` [Compound 8k, N1-(2-ethyl-3-oxoisoindoline)benzoyl-N5-(2-fluoro-1-iminoethyl)-1-(4-methoxy-1-methyl-benzo[d]imidazol-2-yl)-L-ornithine], at PAD1, the kinact/KI is 1180 M⁻¹ s⁻¹ and the “Fold PAD1 Selectivity” value amounted to 16 fold. On PAD2, the Ki was found to be 5.3 µM, the maximal inactivation rate constant (kinact) worked out at 0.0323 s⁻¹, the kinact/KI is 6090 M⁻¹ s⁻¹ and the “Fold PAD2 Selectivity” value worked out at 85 fold. In addition, on PAD3, the kinact/KI was 72 M⁻¹ s⁻¹ and the “Fold PAD3 Selectivity” value was found to be 1.0 fold. On PAD4, the kinact/KI is 71.7 M⁻¹ s⁻¹ and the “Fold PAD4 Selectivity” value is 1.0 fold.

On to `CCN1Cc2cccc(C(=O)N[C@@H](CCCNC(=N)CCl)c3nc4c(OC)cccc4n3C)c2C1=O` [Compound 8l, N1-(2-ethyl-3-oxoisoindoline)benzoyl-N5-(2-chloro-1-iminoethyl)-1-(4-methoxy-1-methyl-benzo[d]imidazol-2-yl)-L-ornithine], for which, at PAD1, the kinact/KI was 963 M⁻¹ s⁻¹ and the “Fold PAD1 Selectivity” value was determined as 3.9 fold. Further, on PAD2, the kinact/KI is 1240 M⁻¹ s⁻¹ and the “Fold PAD2 Selectivity” value amounted to 5.0 fold. Further, at PAD3, the kinact/KI is 247 M⁻¹ s⁻¹ and the “Fold PAD3 Selectivity” value is 1.0 fold. Moreover, on PAD4, the inactivation efficiency (kinact/KI) is 323 M⁻¹ s⁻¹ and the “Fold PAD4 Selectivity” value is recorded as 1.3 fold.

On to `CCOc1cccc2c1nc([C@H](CCCNC(=N)CF)NC(=O)c1cccc3c1C(=O)N(CC)C3)n2C` [Compound 8m, N1-(2-ethyl-3-oxoisoindoline)benzoyl-N5-(2-fluoro-1-iminoethyl)-1-(4-ethoxy-1-methyl-benzo[d]imidazol-2-yl)-L-ornithine], for which, on PAD1, the inactivation efficiency (kinact/KI) was 497 M⁻¹ s⁻¹ and the “Fold PAD1 Selectivity” value is on record as 8.9 fold. In addition, at PAD2, the kinact/KI is 1430 M⁻¹ s⁻¹ and the “Fold PAD2 Selectivity” value is 26 fold. At PAD3, the inactivation efficiency (kinact/KI) was 57.8 M⁻¹ s⁻¹ and the “Fold PAD3 Selectivity” value was 1.0 fold. Also, on PAD4, the second-order inactivation constant (kinact/KI) was 55.8 M⁻¹ s⁻¹ and the “Fold PAD4 Selectivity” value came out at 1.0 fold.

Take `CCOc1cccc2c1nc([C@H](CCCNC(=N)CCl)NC(=O)c1cccc3c1C(=O)N(CC)C3)n2C` [Compound 8n, N1-(2-ethyl-3-oxoisoindoline)benzoyl-N5-(2chloro-1-iminoethyl)-1-(4-ethoxy-1-methyl-benzo[d]imidazol-2-yl)-L-ornithine]: on PAD1, the kinact/KI is 302 M⁻¹ s⁻¹ and the “Fold PAD1 Selectivity” value came out at 12 fold. At PAD2, the kinact/KI was 1090 M⁻¹ s⁻¹ and the “Fold PAD2 Selectivity” value worked out at 43 fold. On PAD3, the kinact/KI is 138 M⁻¹ s⁻¹ and the “Fold PAD3 Selectivity” value came to 5.5 fold. Besides, on PAD4, the second-order inactivation constant (kinact/KI) is 25.2 M⁻¹ s⁻¹ and the “Fold PAD4 Selectivity” value came to 1.0 fold.

As for `CCN1Cc2cccc(C(=O)N[C@@H](CCCNC(=N)CF)c3nc4cc(OC)ccc4n3C)c2C1=O` [Compound 8o, N1-(2-ethyl-3-oxoisoindoline)benzoyl-N5-(2-fluoro-1-iminoethyl)-1-(5-methoxy-1-methyl-benzo[d]imidazol-2-yl)-L-ornithine], on PAD1, the inactivation efficiency (kinact/KI) is 842 M⁻¹ s⁻¹ and the “Fold PAD1 Selectivity” value was 47 fold. At PAD2, the Ki was 18.7 µM, the maximal inactivation rate constant (kinact) was 0.0417 s⁻¹, the second-order inactivation constant (kinact/KI) was 2230 M⁻¹ s⁻¹ and the “Fold PAD2 Selectivity” value is given as 125 fold. For the same molecule, at PAD3, the kinact/KI is 17.8 M⁻¹ s⁻¹ and the “Fold PAD3 Selectivity” value turned out to be 1.0 fold. Besides, on PAD4, the kinact/KI is 68.3 M⁻¹ s⁻¹ and the “Fold PAD4 Selectivity” value turned out to be 3.8 fold.
